Source: paper PMC11785708, “Design and synthesis of new quinazolinone derivatives: investigation of antimicrobial and biofilm inhibition effects” (Molecular Diversity, 2024)
Values after ≈ are worked out from the molar mass of the structure shown.

How the values were obtained:
K. pneumoniae ATCC 13883 [1] = experiment: Agar well diffusion, K. pneumoniae; format: cell-based; details: Klebsiella pneumoniae, ATCC13883; 100 μl of test compound 20 mg/ml in DMF; ciprofloxacin and fluconazole 30 μg/ml; 24 h; mean ± SD; read-out: diameters of inhibition zone, K. pneumoniae ATCC 13883
Procedure: (§1) The antimicrobial activity was tested against Gram positive bacteria: Bacillus cereus (B. cereus ATCC 6629), Bacillus subtilis (B. subtilis ATCC 6633), Staphylococcus aureus (S. aureus ATCC 6538), Gram negative bacteria: Klebsiella pneumoniae (K. pneumoniae ATCC 13883), Pseudomonas aeruginosa (P. aeruginosa ATCC 27953) and Candida albicans (C. albicans ATCC 10231). Glycerol stocks were thawed upon need and propagated into nutrient broth at 37 °C. The antibacterial activity of the compounds 9-32 was carried out in vitro using the agar well diffusion method, originally reported by […] and Bauer and coworkers and described by the National Committee for Clinical Laboratory Standards (NCCLS). Bacterial strains, adjusted at […] (equivalent to 0.5 McFarland), were used to inoculate nutrient agar plates. 9-mm diameter wells were punched into the solidified nutrient agar plates using sterile cork borer and 100 μl samples of the test compounds, dissolved in dimethyl formamide (DMF) at 20 mg/ml concentrations, were added and allowed to diffuse at 4 °C for 2 h. Subsequently, the plates were incubated overnight in an upright position at 37 °C. DMF was used as a negative control while ciprofloxacin and fluconazole (30 μg/ml) served as positive controls. After 24 h incubation, the diameters of the growth inhibition zones were recorded in mm. Data was expressed as mean ± standard deviation of three replicates.

B. subtilis ATCC 6633 [2] = experiment: Agar well diffusion, B. subtilis; format: cell-based; details: Bacillus subtilis, ATCC6633; 100 μl of test compound 20 mg/ml in DMF; ciprofloxacin and fluconazole 30 μg/ml; 24 h; mean ± SD; read-out: diameters of inhibition zone, B. subtilis ATCC 6633
Procedure: as §1

B. cereus ATCC 6629 [3] = experiment: Agar well diffusion, B. cereus; format: cell-based; details: Bacillus cereus, ATCC6629; 100 μl of test compound 20 mg/ml in DMF; ciprofloxacin and fluconazole 30 μg/ml; 24 h; mean ± SD; read-out: diameters of inhibition zone, B. cereus ATCC 6629
Procedure: as §1

C. albicans ATCC 10231 [4] = experiment: Agar well diffusion, C. albicans; format: cell-based; details: Candida albicans, ATCC10231; 100 μl of test compound 20 mg/ml in DMF; ciprofloxacin and fluconazole 30 μg/ml; 24 h; mean ± SD; read-out: diameters of inhibition zone, C. albicans ATCC 10231
Procedure: as §1

P. aeruginosa ATCC 27953 [5] = experiment: Agar well diffusion, P. aeruginosa; format: cell-based; details: Pseudomonas aeruginosa, ATCC27953; 100 μl of test compound 20 mg/ml in DMF; ciprofloxacin and fluconazole 30 μg/ml; 24 h; mean ± SD; read-out: diameters of inhibition zone, P. aeruginosa ATCC 27953
Procedure: as §1

B. subtilis ATCC 6633 [6] = experiment: MIC determination, B. subtilis; format: cell-based, Bacillus subtilis; details: serial dilutions, triplicate; for MIC: Bacillus subtilis, ATCC6633
Procedure: (§2) Serial dilutions of the test compounds were tested to determine their MIC against the most susceptible organisms. The MIC was expressed as the lowest concentration which inhibited the visible growth of the corresponding microorganism. All assays were performed in triplicate.

Cell viability MTT assay = format: cell-based; details: human, BJ1 cells (normal skin fibroblasts)
Procedure: Cell viability testing at 5 mg/ml was carried out by colorimetric MTT assay on human normal cell line BJ1 (skin fibroblasts) to investigate the toxicity of the most broad spectrum derivatives 9, 15, 16, 18, 19, 20 and 29 (Table 3). The viability of the cells treated with the aforementioned derivatives was more than 87% at 5 mg/ml concentration. This gives indication that the compounds are tolerated and nontoxic for human cells, as the cytotoxic dose was higher than the therapeutic dose on most of microorganisms. It is worth mentioning that the safe limit of the percent of dead cells is not an absolute value and could be more than 10% as reported in previous studies.
The most broad spectrum compounds were evaluated for their cytotoxic activity against BJ1 cell line using colorimetric MTT [3-(4,5-dimethylthiazol-2-yl)-2,5-diphenyltetrazolium bromide] assay.

C. albicans ATCC 10231 [7] = experiment: MIC determination, C. albicans; format: cell-based, Candida albicans; details: serial dilutions, triplicate
Procedure: as §2

K. pneumoniae ATCC 13883 [8] = experiment: MIC determination, K. pneumoniae; format: cell-based, Klebsiella pneumoniae; details: serial dilutions, triplicate; for MIC: Klebsiella pneumoniae, ATCC13883
Procedure: as §2

P. aeruginosa ATCC 27953 [9] = experiment: MIC determination, P. aeruginosa; format: cell-based, Pseudomonas aeruginosa; details: serial dilutions, triplicate; for MIC: Pseudomonas aeruginosa, ATCC27953
Procedure: as §2

S. aureus ATCC 6538 = experiment: Agar well diffusion, S. aureus; format: cell-based; details: Staphylococcus aureus, ATCC6538; 100 μl of test compound 20 mg/ml in DMF; ciprofloxacin and fluconazole 30 μg/ml; 24 h; mean ± SD; read-out: diameters of inhibition zone, S. aureus ATCC 6538
Procedure: as §1

B. cereus ATCC 6629 [10] = experiment: MIC determination, B. cereus; format: cell-based, Bacillus cereus; details: serial dilutions, triplicate
Procedure: as §2

| SMILES | zone of inhibition at 20000 µg/mL (K. pneumoniae ATCC 13883 [1]) | melting point | zone of inhibition at 20000 µg/mL (B. subtilis ATCC 6633 [2]) | zone of inhibition at 20000 µg/mL (C. albicans ATCC 10231 [4]) | zone of inhibition at 20000 µg/mL (P. aeruginosa ATCC 27953 [5]) | also measured |
| --- | --- | --- | --- | --- | --- | --- |
| O=c1c2ccccc2nc(CN2CCCCC2)n1N=Cc1ccccc1 [Compound 21, 3-(Benzylideneamino)-2-(piperidin-1-ylmethyl)quinazolin-4(3H)-one] | 12 ± 0.15 mm | 98 °C | 17 ± 0.14 mm |  |  | zone of inhibition at 20000 µg/mL (B. cereus ATCC 6629 [3]): 12 ± 0.16 mm |
| OC(Cn1cncn1)(Cn1cncn1)c1ccc(F)cc1F [Fluconazole, reference compound] |  |  |  | 20 ± 0.18 mm |  |  |
| COc1ccc(C=Nn2c(CN3CCCCC3)nc3ccccc3c2=O)cc1 [Compound 24, 3-[(4-Methoxylbenzylidene)amino]-2-(piperidin-1-ylmethyl)quinazolin-4(3H)-one] | 12 ± 0.14 mm | 138 °C |  |  | 14 ± 0.21 mm |  |
| Cc1ccc(C=Nn2c(CN3CCCC3)nc3ccccc3c2=O)cc1 [Compound 17, 3-[(4-Methylbenzylidene)amino]-2-(pyrrolidin-1-ylmethyl)quinazolin-4(3H)-one] |  | 156 °C |  |  | 16 ± 0.22 mm |  |
| Cc1ccc(C=Nn2c(CN3CCOCC3)nc3ccccc3c2=O)cc1 [Compound 29, 3-[(4-Methylbenzylidene)amino]-2-(morpholinomethyl)quinazolin-4(3H)-one] | 20 ± 0.15 mm | 128 °C | 14 ± 0.06 mm | 13 ± 0.07 mm | 14 ± 0.16 mm | MIC (B. subtilis ATCC 6633 [6]): 500 µg/mL (≈ 1.38 mM); MIC, B. subtilis ATCC 6633 (B. subtilis ATCC 6633 [6]): 500 ± 60 µg/mL (≈ 1.38 mM); viability at 5 mg/ml (Cell viability MTT assay): 87.6 ± 3.61%; MIC (C. albicans ATCC 10231 [7]; Candida albicans, ATCC10231): 5000 µg/mL (≈ 13.8 mM); MIC, C. albicans ATCC 10231 (C. albicans ATCC 10231 [7]): 5000 ± 290 µg/mL (≈ 13.8 mM); MIC (K. pneumoniae ATCC 13883 [8]): 2500 µg/mL (≈ 6.9 mM); MIC, K. pneumoniae ATCC 13883 (K. pneumoniae ATCC 13883 [8]): 2500 ± 500 µg/mL (≈ 6.9 mM); MIC (P. aeruginosa ATCC 27953 [9]): 1500 µg/mL (≈ 4.14 mM) |
| CCN(CC)Cc1nc2ccccc2c(=O)n1N=Cc1ccc(C)cc1 [Compound 11, 2-[(Diethylamino)methyl]-3-[(4-methylbenzylidene)amino]quinazolin-4(3H)-one] |  | 74 °C | 14 ± 0.16 mm |  |  |  |
| CCN(CC)Cc1nc2ccccc2c(=O)n1N=Cc1ccc(Cl)cc1 [Compound 10, 3-[(4-Chlorobenzylidene)amino]-2-[(diethylamino)methyl]quinazolin-4(3H)-one] | 15 ± 0.15 mm | 124 °C |  |  |  |  |
| COc1ccc(C=Nn2c(CN3CCOCC3)nc3ccccc3c2=O)cc1 [Compound 30, 3-[(4-Methoxylbenzylidene)amino]-2-(morpholinomethyl)quinazolin-4(3H)-one] | 14 ± 0.15 mm | 138 °C |  |  |  | zone of inhibition at 20000 µg/mL (S. aureus ATCC 6538): 12 ± 0.12 mm |
| COc1cc(C=Nn2c(CN3CCOCC3)nc3ccccc3c2=O)cc(OC)c1OC [Compound 31, 2-(Morpholinomethyl)-3-[(3,4,5-trimethoxybenzylidene)amino]quinazolin-4(3H)-one] |  | 155 °C |  |  |  |  |
| O=c1c2ccccc2nc(CN2CCCCC2)n1N=Cc1ccc(Cl)cc1 [Compound 22, 3-[(4-Chlorobenzylidene)amino]-2-(piperidin-1-ylmethyl)quinazolin-4(3H)-one] |  | 130 °C | 10 ± 0.07 mm |  |  |  |
| Cc1ccc(C=Nn2c(CN3CCCCC3)nc3ccccc3c2=O)cc1 [Compound 23, 3-[(4-Methylbenzylidene)amino]-2-(piperidin-1-ylmethyl)quinazolin-4(3H)-one] |  | 124 °C |  | 11 ± 0.13 mm |  |  |
| COc1cc(C=Nn2c(CN3CCCCC3)nc3ccccc3c2=O)cc(OC)c1OC [Compound 25, 2-(Piperidin-1-ylmethyl)-3-[(3,4,5-trimethoxybenzylidene)amino]quinazolin-4(3H)-one] | 14 ± 0.17 mm | 112 to 114 °C |  |  | 21 ± 0.17 mm |  |
| O=c1c2ccccc2nc(CN2CCOCC2)n1N=Cc1ccc(Cl)cc1 [Compound 28, 3-[(4-Chlorobenzylidene)amino]-2-(morpholinomethyl)quinazolin-4(3H)-one] | 16 ± 0.18 mm | 140 to 142 °C | 12 ± 0.2 mm |  |  |  |
| O=c1c2ccccc2nc(CN2CCCCC2)n1N=Cc1ccc([N+](=O)[O-])cc1 [Compound 26] | 11 ± 0.07 mm | 180 to 182 °C | 12 ± 0.11 mm |  |  |  |
| CCN(CC)Cc1nc2ccccc2c(=O)n1N=Cc1ccc(OC)cc1 [Compound 12, 2-[(Diethylamino)methyl]-3-[(4-methoxybenzylidene)amino]quinazolin-4(3H)-one] |  | 102 to 104 °C |  |  | 18 ± 0.27 mm |  |
| O=c1c2ccccc2nc(CN2CCOCC2)n1N=Cc1ccccc1 [Compound 27, 3-(Benzylideneamino)-2-(morpholinomethyl)quinazolin-4(3H)-one] | 14 ± 0.16 mm | 132 °C | 14 ± 0.15 mm | 13 ± 0.09 mm |  |  |
| CCN(CC)Cc1nc2ccccc2c(=O)n1N=Cc1ccccc1 [Compound 9, 3-(Benzylideneamino)-2-[(diethylamino)methyl]quinazolin-4(3H)-one] | 12 ± 0.17 mm | 78 °C | 15 ± 0.25 mm |  | 21 ± 0.36 mm | MIC (B. cereus ATCC 6629 [10]; Bacillus cereus, ATCC6629): 1000 µg/mL (≈ 2.99 mM); MIC, B. cereus ATCC 6629 (B. cereus ATCC 6629 [10]): 1000 ± 0 µg/mL (≈ 2.99 mM); MIC (B. subtilis ATCC 6633 [6]): 2000 µg/mL (≈ 5.98 mM); viability at 5 mg/ml (Cell viability MTT assay): 91.5 ± 2.21%; MIC (K. pneumoniae ATCC 13883 [8]): 1500 ± 60 µg/mL (≈ 4.49 mM); MIC (P. aeruginosa ATCC 27953 [9]): 2000 µg/mL (≈ 5.98 mM); MIC, P. aeruginosa ATCC 27953 (P. aeruginosa ATCC 27953 [9]): 2000 ± 290 µg/mL (≈ 5.98 mM); zone of inhibition at 20000 µg/mL (B. cereus ATCC 6629 [3]): 14 ± 0.09 mm |
| CCN(CC)Cc1nc2ccccc2c(=O)n1N=Cc1cc(OC)c(OC)c(OC)c1 [Compound 13, 2-[(Diethylamino)methyl]-3-[(3,4,5-trimethoxybenzylidene)amino]quinazolin-4(3H)-one] | 12 ± 0.07 mm | 116 °C |  | 12 ± 0.28 mm | 20 ± 0.18 mm |  |
| CCN(CC)Cc1nc2ccccc2c(=O)n1N=Cc1ccc([N+](=O)[O-])cc1 [Compound 14, 2-[(Diethylamino)methyl]-3-[(4-nitrobenzylidene)amino]quinazolin-4(3H)-one] |  | 155 °C |  | 12 ± 0.37 mm |  |  |
| O=c1c2ccccc2nc(CN2CCOCC2)n1N=Cc1ccc([N+](=O)[O-])cc1 [Compound 32, 2-(Morpholinomethyl)-3-[(4-nitrobenzylidene)amino]quinazolin-4(3H)-one] |  | 200 °C | 14 ± 0.27 mm |  | 18 ± 0.09 mm |  |
